Test system: patients with chronic GVHD
Assay: Example 2: phase II randomized study of belumosudil (KD025-213) in cGVHD, efficacy and safety;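 note: allogeneic HCT recipients aged ≥12 years with persistent cGVHD after two to five earlier systemic treatment lines, responses judged by site investigators, 12-month analysis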
Settings: for Cough / Diarrhea / Dyspnea / Fatigue / Headache / Muscle spasms / Nausea / Peripheral edema / Vomiting: All grades; for Hyperglycemia / Hypertension / Pneumonia: Grade ≥3; for ALT increased / AST increased / Bilirubin conjugated increased / Blood alkaline phosphatase increased / GGT increased / Hypoalbuminemia / LFT increased / Transaminases increased: Liver-related AE; for Clinically significant improvement from baseline (LSS), Overall: decrease ≥7 points in LSS score
[1] = 200 mg BID (n = 66), of subjects with organ involved
[2] = 200 mg QD (n = 66), of subjects with organ involved
[3] = Total (N = 132), of subjects with organ involved
[4] = Total, N=132, mITT, listed as Belumosudil

Excerpt: Concomitant treatment with supportive care therapies for chronic GVHD was permitted. […] Initiation of new systemic chronic GVHD therapy while on study was not permitted.
Eligible subjects were allogeneic hematopoietic cell transplant recipients aged ≥12 years with persistent cGVHD manifestations after receiving 2 to 5 prior systemic lines of therapy. Subjects were required to be receiving stable corticosteroid therapy for 2 weeks prior to screening and to have a Karnofsky or Lansky Performance Status Scale score≥60. Certain concurrent immunosuppressive medications were allowed because drug-drug interactions were not anticipated.
Randomization was stratified (1:1) by cGVHD severity and prior exposure to ibrutinib.
All responses were assessed by the study site investigators. Secondary end points included duration of response (DOR), time to response, changes in LSS summary score, failure-free survival (FFS), corticosteroid dose reductions, and overall survival (OS). DOR was measured from the time of initial PR or CR until documented progression from best response of cGVHD, time from initial response to start of additional systemic cGVHD therapy, or death. The 7-day LSS summary score was calculated based on the developer recommendations and was compared with the score from baseline; an improvement ≥7 points was considered clinically meaningful. […] Relative dose intensity (RDI) was used as a surrogate measure of drug tolerability and was defined as actual dose intensity/planned dose intensity, where dose intensity was defined as the cumulative dose over the duration of exposure (mg/d). Actual dose intensity captured the sum of actual doses received over the duration of exposure and incorporated dose reductions and/or interruptions.
The Hochberg procedure was used for multiplicity adjustment for the primary end point of best ORR. […] CI was calculated using the Clopper-Pearson interval (exact) method.

CC(C)NC(=O)COc1cccc(-c2nc(Nc3ccc4[nH]ncc4c3)c3ccccc3n2)c1 [belumosudil, 2-{3-[4-(1H-indazol-5-ylamino)-2-quinazolinyl]phenoxy}-N-(propan-2-yl) acetamide]
CR, Eyes [1]: (12) % | CR, Joints and fascia [1]: (20) % | CR, Lower GI [1]: (57) % | ORR, Esophagus [1]: (42) % | ORR, Lower GI [1]: (71) % | ORR, Lungs [1]: (22) % | ORR, Mouth [1]: (57) % | ORR, Skin [1]: (42) % | ORR, Upper GI [1]: (40) % | PR, Joints and fascia [1]: (47) % | PR, Lower GI [1]: (14) % | CR, Joints and fascia [2]: (20) % | CR, Liver [2]: (22) % | CR, Lungs [2]: (17) % | CR, Upper GI [2]: (54) % | ORR, Eyes [2]: (33) % | ORR, Joints and fascia [2]: (75) % | ORR, Liver [2]: (33) % | ORR, Lower GI [2]: (67) % | ORR, Lungs [2]: (29) % | ORR, Mouth [2]: (53) % | ORR, Skin [2]: (33) % | ORR, Upper GI [2]: (62) % | PR, Skin [2]: (18) % | Clinically significant improvement from baseline (LSS), Nonresponder (200 mg daily): (29) % | Any AE (200 mg daily (n = 66)): (99) % | Deaths (200 mg daily (n = 66)): (12) % | Drug-related AEs (200 mg daily (n = 66)): (74) % | Drug-related SAEs (200 mg daily (n = 66)): (8) % | Grade ≥3 AEs (200 mg daily (n = 66)): (56) % | Liver-related AEs (200 mg daily (n = 66)): (18) % | SAEs (200 mg daily (n = 66)): (41) % | CS discontinuation (200 mg daily, n=66, mITT): (20) % | FFS at 6 mo (200 mg daily, n=66, mITT): 73% | ORR (best, any time) (200 mg daily, n=66, mITT): (74) % | ORR for responses occurring within 6 mo of treatment (200 mg daily, n=66, mITT): (71) % | ORR for responses occurring within 12 mo of treatment (200 mg daily, n=66, mITT): (74) % | PR, within 6 mo of treatment (200 mg daily, n=66, mITT): (68) % | PR, within 12 mo of treatment (200 mg daily, n=66, mITT): (68) % | Clinically significant improvement from baseline (LSS), Nonresponder (200 mg twice daily): (33) % | Clinically significant improvement from baseline (LSS), Responder (200 mg twice daily): (71) % | Any AE (200 mg twice daily (n = 66)): (100) % | Deaths (200 mg twice daily (n = 66)): (9) % | Drug-related AEs (200 mg twice daily (n = 66)): (61) % | Drug-related SAEs (200 mg twice daily (n = 66)): (3) % | Grade ≥3 AEs (200 mg twice daily (n = 66)): (52) % | Liver-related AEs (200 mg twice daily (n = 66)): (29) % | SAEs (200 mg twice daily (n = 66)): (35) % | FFS at 6 mo (200 mg twice daily, n=66, mITT): 76% | ORR (best, any time) (200 mg twice daily, n=66, mITT): (77) % | PR, within 6 mo of treatment (200 mg twice daily, n=66, mITT): (71) % | PR, within 12 mo of treatment (200 mg twice daily, n=66, mITT): (73) % | Cough (200 mg daily (n = 66)): (30) % | Diarrhea (200 mg daily (n = 66)): (35) % | Dyspnea (200 mg daily (n = 66)): (32) % | Fatigue (200 mg daily (n = 66)): (46) % | Headache (200 mg daily (n = 66)): (20) % | Muscle spasms (200 mg daily (n = 66)): (20) % | Nausea (200 mg daily (n = 66)): (35) % | Peripheral edema (200 mg daily (n = 66)): (26) % | Vomiting (200 mg daily (n = 66)): (27) % | Cough (200 mg twice daily (n = 66)): (26) % | Diarrhea (200 mg twice daily (n = 66)): (32) % | Dyspnea (200 mg twice daily (n = 66)): (18) % | Fatigue (200 mg twice daily (n = 66)): (30) % | Headache (200 mg twice daily (n = 66)): (27) % | Muscle spasms (200 mg twice daily (n = 66)): (20) % | Nausea (200 mg twice daily (n = 66)): (27) % | Peripheral edema (200 mg twice daily (n = 66)): (20) % | Vomiting (200 mg twice daily (n = 66)): (15) % | Cough (Total (N = 132)): (28) % | Diarrhea (Total (N = 132)): (33) % | Dyspnea (Total (N = 132)): (25) % | Fatigue (Total (N = 132)): (38) % | Headache (Total (N = 132)): (24) % | Muscle spasms (Total (N = 132)): (20) % | Nausea (Total (N = 132)): (31) % | Peripheral edema (Total (N = 132)): (23) % | Vomiting (Total (N = 132)): (21) % | Hyperglycemia (200 mg daily (n = 66)): (5) % | Hypertension (200 mg daily (n = 66)): (6) % | Pneumonia (200 mg daily (n = 66)): (9) % | Hyperglycemia (200 mg twice daily (n = 66)): (5) % | Hypertension (200 mg twice daily (n = 66)): (6) % | Pneumonia (200 mg twice daily (n = 66)): (6) % | Hyperglycemia (Total (N = 132)): (5) % | Hypertension (Total (N = 132)): (6) % | Pneumonia (Total (N = 132)): (8) % | ALT increased (200 mg daily (n = 66)): (6) % | AST increased (200 mg daily (n = 66)): (8) % | Bilirubin conjugated increased (200 mg daily (n = 66)): (2) % | Blood alkaline phosphatase increased (200 mg daily (n = 66)): (6) % | GGT increased (200 mg daily (n = 66)): (9) % | Hypoalbuminemia (200 mg daily (n = 66)): (3) % | LFT increased (200 mg daily (n = 66)): (2) % | Transaminases increased (200 mg daily (n = 66)): (2) % | ALT increased (200 mg twice daily (n = 66)): (11) % | AST increased (200 mg twice daily (n = 66)): (12) % | Bilirubin conjugated increased (200 mg twice daily (n = 66)): 0% | Blood alkaline phosphatase increased (200 mg twice daily (n = 66)): (9) % | GGT increased (200 mg twice daily (n = 66)): (15) % | Hypoalbuminemia (200 mg twice daily (n = 66)): (3) % | LFT increased (200 mg twice daily (n = 66)): 0% | Transaminases increased (200 mg twice daily (n = 66)): (2) % | ALT increased (Total (N = 132)): (8) % | AST increased (Total (N = 132)): (10) % | Bilirubin conjugated increased (Total (N = 132)): (1) % | Blood alkaline phosphatase increased (Total (N = 132)): (8) % | GGT increased (Total (N = 132)): (12) % | Hypoalbuminemia (Total (N = 132)): (3) % | LFT increased (Total (N = 132)): (1) % | Transaminases increased (Total (N = 132)): (2) % | Clinically significant improvement from baseline (LSS), Nonresponder (Total): (31) % | Clinically significant improvement from baseline (LSS), Responder (Total): (70) % | Any AE (Total (N = 132)): (99) % | Drug-related AEs (Total (N = 132)): (67) % | Drug-related SAEs (Total (N = 132)): (5) % | Grade ≥3 AEs (Total (N = 132)): (54) % | Liver-related AEs (Total (N = 132)): (24) % | SAEs (Total (N = 132)): (38) % | CR, Esophagus [3]: (45) % | CR, Eyes [3]: (14) % | CR, Joints and fascia [3]: (20) % | CR, Liver [3]: (31) % | CR, Lower GI [3]: (62) % | CR, Lungs [3]: (13) % | CR, Mouth [3]: (44) % | CR, Skin [3]: (16) % | CR, Upper GI [3]: (48) % | ORR, Esophagus [3]: (45) % | ORR, Eyes [3]: (42) % | ORR, Joints and fascia [3]: (71) % | ORR, Liver [3]: (39) % | ORR, Lower GI [3]: (69) % | ORR, Lungs [3]: (26) % | ORR, Mouth [3]: (56) % | ORR, Skin [3]: (37) % | ORR, Upper GI [3]: (52) % | PR, Esophagus [3]: 0% | PR, Eyes [3]: (28) % | PR, Joints and fascia [3]: (51) % | PR, Liver [3]: (8) % | PR, Lower GI [3]: (8) % | PR, Lungs [3]: (13) % | PR, Mouth [3]: (11) % | PR, Skin [3]: (21) % | PR, Upper GI [3]: (4) % | Deaths (Total (N = 132), six during LTFU): (11) % | CR, within 6 mo of treatment (Total, N=132, mITT): (2) % | CR, within 12 mo of treatment (Total, N=132, mITT): (5) % | FFS at 6 mo (Total, N=132, mITT): 75% | FFS at 12 mo (Total, N=132, mITT): 56% | Mean change in CS dose from baseline, Overall (Total, N=132, mITT): −45% | Median CS reduction from baseline to greatest reduction (Total, N=132, mITT): 50% | ORR (best, any time) (Total, N=132, mITT): (76) % | ORR for responses occurring within 6 mo of treatment (Total, N=132, mITT): (72) % | ORR for responses occurring within 12 mo of treatment (Total, N=132, mITT): (75) % | PR, within 6 mo of treatment (Total, N=132, mITT): (70) % | PR, within 12 mo of treatment (Total, N=132, mITT): (71) % | Proportion with CS reduction (Total, N=132, mITT): 65% | CS discontinuation [4]: 21) % | Proportion with CS reduction [4]: (65) % | Clinically significant improvement from baseline (LSS), Overall (200 mg daily, n=66, mITT): 59% | Clinically significant improvement from baseline (LSS), Overall (200 mg daily, n=66, mITT, listed as Belumosudil): (59) % | Clinically significant improvement from baseline (LSS), Overall (200 mg twice daily, n=66, mITT): 62% | Clinically significant improvement from baseline (LSS), Overall (200 mg twice daily, n=66, mITT, listed as Belumosudil): (62) % | Clinically significant improvement from baseline (LSS), Overall (Total, N=132, mITT): (61) % | Grade ≥3 anemia (in vivo): 3% | Grade ≥3 cytopenias (in vivo): < 4% | Grade ≥3 neutropenia (in vivo): 2% | Grade ≥3 thrombocytopenia (in vivo): 2% | SAE: pneumonia (in vivo): 7% | discontinued because of overall AEs (in vivo): 21% | discontinued because of possible drug-related AEs (in vivo): 12% | discontinued because of progression of cGVHD (in vivo): 16% | discontinued because of progression of underlying malignant disease (in vivo): 4% | grade 3 or 4 AE: hyperglycemia (in vivo): 5% | grade 3 or 4 AE: hypertension (in vivo): 6% | grade 3 or 4 AE: pneumonia (in vivo): 8% | liver-related AE: increased GGT (in vivo): 12% | subjects who discontinued calcineurin inhibitor (CNI) therapy (in vivo): 22% | subjects who received an RDI >95% (in vivo): Eighty-one | subjects with >1 SAE (in vivo): Thirty eight | subjects with increased liver function tests (LFTs) (in vivo): Twenty-four | organ-specific best ORR, esophagus (mITT, pooled): 45% | organ-specific best ORR, eyes (mITT, pooled): 42% | organ-specific best ORR, joints/fascia (mITT, pooled): 71% | organ-specific best ORR, liver (mITT, pooled): 39% | organ-specific best ORR, lower GI tract (mITT, pooled): 69% | organ-specific best ORR, lungs (mITT, pooled): 26% | organ-specific best ORR, mouth (mITT, pooled): 55% | organ-specific best ORR, skin (mITT, pooled): 37% | organ-specific best ORR, upper gastrointestinal (GI) tract (mITT, pooled): 52% | nonrelapse mortality (NRM) rate (overall): 7% | share of responses seen after 6 to 12 months of treatment (pooled): 9% | ORRs observed in all subgroups (pooled across arms, mITT): 61-85%

Source: patent US12097202B2 (Kadmon Corporation, LLC, priority 2022, dated 2024)
